Assay results reported in publication PMC6278664, “Highly Cancer Selective Antiproliferative Activity of Natural Prenylated Flavonoids” (Molecules, 2018).

The compounds below were run on MCF7 human breast cancer cell line (assay: SRB antiproliferative assay, MCF7). Conditions: Homo sapiens, MCF7, 72 h, SRB, 72 h, mean ± SD.
Format: cell-based
Procedure: (§1) We determined the effect of various structural factors in the substrates on the antiproliferative activity against those selected to the study cell lines: the location and/or the presence of the prenyl group, the chalcone/flavanone skeleton and the presence of an O-methyl group at C-5 in flavanones. Flavonoids presented in Figure 1 were tested for the antiproliferative activity towards eight cancer cell lines including estrogen-dependent (MCF7 and T-47D) and two normal ones (HLMEC and MCF 10A). The in vitro antiproliferative activity was measured using SRB assay. The results are presented in Figure 2 (and in the supplement in Table S1). The antiproliferative activity was measured separately for each of the experiments and given as the average IC50 (the concentration of tested compound which inhibits 50% of the cells population). Cisplatin (CP), a common anticancer drug, was used as a positive control.
(§2) The following established in vitro cell lines were applied: MCF7, T-47D, MDA-MB-231 (human breast cancer cell line), A2780 (human ovarian cancer cell line), A2780cis (human cisplatin-resistant ovarian cancer cell line), PC-3 and DU 145 (human prostate cancer cell lines), HT-29 (human colon cancer cell line), HLMEC (human lung microvascular endothelial cell line), and MCF 10A (human mammary epithelial cells line).
(§3) The cell lines: MDA-MB-231, HT-29, PC-3, DU 145, and MCF 10A were obtained from the American Type Culture Collection (Rockville, MD, USA), MCF7, T-47D, A2780, A2780cis from the European Collection Cell Cultures (Sigma-Aldrich, Chemie GmbH, Steinheim, Germany), while the HLMEC cell line was obtained by M. Paprocka from the institute. All cell lines are being maintained in the Institute of Immunology and Experimental Therapy (Wrocław, Poland). DU 145 and MCF7 cells were cultured in Eagle medium (supplemented with 4mM L-glutamine, 10% fetal bovine serum, 1 mM sodium pyruvate for DU 145 cells or 2 mM L-glutamine, 1% mem non-essential amino acid solution and 8 µg/mL insulin and 10% fetal bovine serum for MCF7). […] HT-29 and T-47D cell lines were cultured in RPMI 1640 + OPTI-MEM medium supplemented with 2 mM L-glutamine, 5% fetal bovine serum and 8 µg/mL of insulin (T-47D) or 1 mM sodium pyruvate (HT-29). MDA-MB-231, PC-3 and HLMEC cell lines were cultured in RPMI 1640 medium supplemented with 2 mM L-glutamine and 10% fetal bovine serum. Medium for MCF 10A cell line consisted of F-12 nutrient mixture supplemented with cholera toxin (0.05 µg/mL), insulin (10 µg/mL), hydrocortisone (0.5 µg/mL), 5% horse serum, and EGFH (20 ng/mL). All the culture media contained antibiotics: 100 units/mL penicillin (Polfa Tarchomin SA, Warsaw, Poland), and 100 µg/mL streptomycin (Sigma-Aldrich, Chemie GmbH, Steinheim, Germany). All cell lines were grown at 37 °C with 5% CO2 humidified atmosphere.
(§4) Twenty-four hours before the incubation with the tested compounds, the cells were seeded in 96-plates (Sarstedt, Germany) at a density of 1 × 10^4 cells per well (0.75 × 10^4 per well for MCF7 and 1 × 10^3 per well for HLMEC) in 100 µL of a culture medium.
(§5) Each agent at each concentration (from 0.1 to 100 µg/mL) was tested in a single experiment, which was repeated four to five times. […] Cisplatin was used as a reference drug.
(§6) The results were calculated as the IC50 (inhibitory concentration 50%)—the concentration of the tested compound which inhibits 50% of the cells population. IC50 values were calculated for each experiment separately and mean values ± SD are presented in the Table S1 in the Supplementary Materials. Each compound at each concentration was tested in triplicate in a single experiment, which was repeated four to five times.
(§7) The cells were fixed in situ by gently adding cold 50% trichloroacetic acid (50 µL per well). The plates were incubated at 4 °C for 1h and then washed five times with tap water. […]

| Structure (SMILES) | IC50 [µM] |
| --- | --- |
| CC(C)=CCc1c(O)cc2c(c1O)C(=O)CC(c1ccc(O)cc1)O2 (centres unmarked) [6PN, 6-(3,3-dimethylallyl)-5,7,4′-trihydroxyflavanone] | 43.2 ± 4.37 |

Same assay, conditions: IC50 HLMEC / IC50 MCF-7

| Structure (SMILES) | Selectivity index SIA, MCF-7 |
| --- | --- |
| CC(C)=CCc1c(O)cc2c(c1O)C(=O)CC(c1ccc(O)cc1)O2 (centres unmarked) [6PN, 6-(3,3-dimethylallyl)-5,7,4′-trihydroxyflavanone] | 0.32 |

Same assay, conditions: IC50 MCF-10A / IC50 MCF-7

| Structure (SMILES) | Selectivity index SIB, MCF-7 |
| --- | --- |
| CC(C)=CCc1c(O)cc2c(c1O)C(=O)CC(c1ccc(O)cc1)O2 (centres unmarked) [6PN, 6-(3,3-dimethylallyl)-5,7,4′-trihydroxyflavanone] | 2.54 |

Each compound was assayed on MCF 10A human mammary epithelial cells line (assay: SRB antiproliferative assay, MCF 10A (normal)). Conditions: Homo sapiens, MCF-10A, 72 h, mean ± SD, read-out: Normal cell line, IC50, MCF-10A.
Format: cell-based
Procedure: as §1, §2, §3, §4, §5, §6, §7

| Structure (SMILES) | IC50 [µM] |
| --- | --- |
| CC(C)=CCc1c(O)cc2c(c1O)C(=O)CC(c1ccc(O)cc1)O2 (centres unmarked) [6PN, 6-(3,3-dimethylallyl)-5,7,4′-trihydroxyflavanone] | 110 ± 33 |

Each compound was assayed on A2780 human ovarian cancer cell line (assay: SRB antiproliferative assay, A2780). Conditions: Homo sapiens, A2780; SRB, 72 h, mean ± SD; read-out: Cancer cell line, IC50, A-2780.
Format: cell-based
Procedure: as §1, §2, §3, §4, §5, §6, §7

| Structure (SMILES) | IC50 [µM] |
| --- | --- |
| CC(C)=CCc1c(O)cc2c(c1O)C(=O)CC(c1ccc(O)cc1)O2 (centres unmarked) [6PN, 6-(3,3-dimethylallyl)-5,7,4′-trihydroxyflavanone] | 44.2 ± 14.7 |

Same assay, conditions: IC50 HLMEC / IC50 A-2780

| Structure (SMILES) | Selectivity index SIA, A-2780 |
| --- | --- |
| CC(C)=CCc1c(O)cc2c(c1O)C(=O)CC(c1ccc(O)cc1)O2 (centres unmarked) [6PN, 6-(3,3-dimethylallyl)-5,7,4′-trihydroxyflavanone] | 0.31 |

Same assay, conditions: IC50 MCF-10A / IC50 A-2780

| Structure (SMILES) | Selectivity index SIB, A-2780 |
| --- | --- |
| CC(C)=CCc1c(O)cc2c(c1O)C(=O)CC(c1ccc(O)cc1)O2 (centres unmarked) [6PN, 6-(3,3-dimethylallyl)-5,7,4′-trihydroxyflavanone] | 2.49 |

What follows are compounds tested on PC-3 human prostate cancer cell line (assay: SRB antiproliferative assay, PC-3). Conditions: Homo sapiens; SRB, 72 h, mean ± SD.
Format: cell-based
Procedure: as §1, §2, §3, §4, §5, §6, §7

| Structure (SMILES) | IC50 [µM] |
| --- | --- |
| CC(C)=CCc1c(O)cc2c(c1O)C(=O)CC(c1ccc(O)cc1)O2 (centres unmarked) [6PN, 6-(3,3-dimethylallyl)-5,7,4′-trihydroxyflavanone] | 75.5 ± 29.8 |

Same assay, conditions: IC50 HLMEC / IC50 PC-3

| Structure (SMILES) | Selectivity index SIA, PC-3 |
| --- | --- |
| CC(C)=CCc1c(O)cc2c(c1O)C(=O)CC(c1ccc(O)cc1)O2 (centres unmarked) [6PN, 6-(3,3-dimethylallyl)-5,7,4′-trihydroxyflavanone] | 0.18 |

Same assay, conditions: IC50 MCF-10A / IC50 PC-3

| Structure (SMILES) | Selectivity index SIB, PC-3 |
| --- | --- |
| CC(C)=CCc1c(O)cc2c(c1O)C(=O)CC(c1ccc(O)cc1)O2 (centres unmarked) [6PN, 6-(3,3-dimethylallyl)-5,7,4′-trihydroxyflavanone] | 1.46 |

What follows are compounds tested on T-47D human breast cancer cell line (assay: SRB antiproliferative assay, T-47D). Conditions: Homo sapiens, T47D; SRB, 72 h, mean ± SD.
Format: cell-based
Procedure: as §1, §2, §3, §4, §5, §6, §7

| Structure (SMILES) | IC50 [µM] |
| --- | --- |
| CC(C)=CCc1c(O)cc2c(c1O)C(=O)CC(c1ccc(O)cc1)O2 (centres unmarked) [6PN, 6-(3,3-dimethylallyl)-5,7,4′-trihydroxyflavanone] | 16 ± 3.74 |

Same assay, conditions: IC50 HLMEC / IC50 T-47D

| Structure (SMILES) | Selectivity index SIA, T-47D |
| --- | --- |
| CC(C)=CCc1c(O)cc2c(c1O)C(=O)CC(c1ccc(O)cc1)O2 (centres unmarked) [6PN, 6-(3,3-dimethylallyl)-5,7,4′-trihydroxyflavanone] | 0.86 |

Same assay, conditions: IC50 MCF-10A / IC50 T-47D

| Structure (SMILES) | Selectivity index SIB, T-47D |
| --- | --- |
| CC(C)=CCc1c(O)cc2c(c1O)C(=O)CC(c1ccc(O)cc1)O2 (centres unmarked) [6PN, 6-(3,3-dimethylallyl)-5,7,4′-trihydroxyflavanone] | 6.87 |

Each compound was assayed on DU 145 human prostate cancer cell line (assay: SRB antiproliferative assay, DU 145). Conditions: Homo sapiens, DU-145; SRB, 72 h, mean ± SD.
Format: cell-based
Procedure: as §1, §2, §3, §4, §5, §6, §7

| Structure (SMILES) | IC50 [µM] |
| --- | --- |
| CC(C)=CCc1c(O)cc2c(c1O)C(=O)CC(c1ccc(O)cc1)O2 (centres unmarked) [6PN, 6-(3,3-dimethylallyl)-5,7,4′-trihydroxyflavanone] | 79.6 ± 8.89 |

Same assay, conditions: IC50 HLMEC / IC50 Du-145

| Structure (SMILES) | Selectivity index SIA, Du-145 |
| --- | --- |
| CC(C)=CCc1c(O)cc2c(c1O)C(=O)CC(c1ccc(O)cc1)O2 (centres unmarked) [6PN, 6-(3,3-dimethylallyl)-5,7,4′-trihydroxyflavanone] | 0.17 |

Same assay, conditions: IC50 MCF-10A / IC50 Du-145

| Structure (SMILES) | Selectivity index SIB, Du-145 |
| --- | --- |
| CC(C)=CCc1c(O)cc2c(c1O)C(=O)CC(c1ccc(O)cc1)O2 (centres unmarked) [6PN, 6-(3,3-dimethylallyl)-5,7,4′-trihydroxyflavanone] | 1.38 |

Each compound was assayed on HLMEC human lung microvascular endothelial cell line (assay: SRB antiproliferative assay, HLMEC (normal)). Conditions: Homo sapiens, Endothelial cell, 72 h, mean ± SD.
Format: cell-based

| Structure (SMILES) | IC50 [µM] |
| --- | --- |
| CC(C)=CCc1c(O)cc2c(c1O)C(=O)CC(c1ccc(O)cc1)O2 (centres unmarked) [6PN, 6-(3,3-dimethylallyl)-5,7,4′-trihydroxyflavanone] | 13.7 ± 5.16 |

Each compound was assayed on MDA-MB-231 human breast cancer cell line (assay: SRB antiproliferative assay, MDA-MB-231). Conditions: Homo sapiens, MDA-MB-231; SRB, 72 h, mean ± SD.
Format: cell-based
Procedure: as §1, §2, §3, §4, §5, §6, §7

| Structure (SMILES) | IC50 [µM] |
| --- | --- |
| CC(C)=CCc1c(O)cc2c(c1O)C(=O)CC(c1ccc(O)cc1)O2 (centres unmarked) [6PN, 6-(3,3-dimethylallyl)-5,7,4′-trihydroxyflavanone] | 62.6 ± 19.5 |

Same assay, conditions: IC50 HLMEC / IC50 MDA-MB-231

| Structure (SMILES) | Selectivity index SIA, MDA-MB-231 |
| --- | --- |
| CC(C)=CCc1c(O)cc2c(c1O)C(=O)CC(c1ccc(O)cc1)O2 (centres unmarked) [6PN, 6-(3,3-dimethylallyl)-5,7,4′-trihydroxyflavanone] | 0.22 |

Same assay, conditions: IC50 MCF-10A / IC50 MDA-MB-231

| Structure (SMILES) | Selectivity index SIB, MDA-MB-231 |
| --- | --- |
| CC(C)=CCc1c(O)cc2c(c1O)C(=O)CC(c1ccc(O)cc1)O2 (centres unmarked) [6PN, 6-(3,3-dimethylallyl)-5,7,4′-trihydroxyflavanone] | 1.76 |

The compounds below were run on HT-29 human colon cancer cell line (assay: SRB antiproliferative assay, HT-29). Conditions: Homo sapiens, HT-29; SRB, 72 h, mean ± SD.
Format: cell-based

| Structure (SMILES) | IC50 [µM] |
| --- | --- |
| CC(C)=CCc1c(O)cc2c(c1O)C(=O)CC(c1ccc(O)cc1)O2 (centres unmarked) [6PN, 6-(3,3-dimethylallyl)-5,7,4′-trihydroxyflavanone] | 64.6 ± 17.1 |

Same assay, conditions: IC50 HLMEC / IC50 HT-29

| Structure (SMILES) | Selectivity index SIA, HT-29 |
| --- | --- |
| CC(C)=CCc1c(O)cc2c(c1O)C(=O)CC(c1ccc(O)cc1)O2 (centres unmarked) [6PN, 6-(3,3-dimethylallyl)-5,7,4′-trihydroxyflavanone] | 0.21 |

Same assay, conditions: IC50 MCF-10A / IC50 HT-29

| Structure (SMILES) | Selectivity index SIB, HT-29 |
| --- | --- |
| CC(C)=CCc1c(O)cc2c(c1O)C(=O)CC(c1ccc(O)cc1)O2 (centres unmarked) [6PN, 6-(3,3-dimethylallyl)-5,7,4′-trihydroxyflavanone] | 1.70 |

What follows are compounds tested on A2780cis human cisplatin-resistant ovarian cancer cell line (assay: SRB antiproliferative assay, A2780cis). Conditions: Homo sapiens, A2780cis; SRB, 72 h, mean ± SD; read-out: Cancer cell line, IC50, A-2780cis.
Format: cell-based
Procedure: as §1, §2, §3, §4, §5, §6, §7

| Structure (SMILES) | IC50 [µM] |
| --- | --- |
| CC(C)=CCc1c(O)cc2c(c1O)C(=O)CC(c1ccc(O)cc1)O2 (centres unmarked) [6PN, 6-(3,3-dimethylallyl)-5,7,4′-trihydroxyflavanone] | 81.7 ± 17.7 |

Same assay, conditions: IC50 HLMEC / IC50 A-2780cis

| Structure (SMILES) | Selectivity index SIA, A-2780cis |
| --- | --- |
| CC(C)=CCc1c(O)cc2c(c1O)C(=O)CC(c1ccc(O)cc1)O2 (centres unmarked) [6PN, 6-(3,3-dimethylallyl)-5,7,4′-trihydroxyflavanone] | 0.17 |

Same assay, conditions: IC50 MCF-10A / IC50 A-2780cis

| Structure (SMILES) | Selectivity index SIB, A-2780cis |
| --- | --- |
| CC(C)=CCc1c(O)cc2c(c1O)C(=O)CC(c1ccc(O)cc1)O2 (centres unmarked) [6PN, 6-(3,3-dimethylallyl)-5,7,4′-trihydroxyflavanone] | 1.35 |
